These results are taken from patent US20230192701A1, “BICYCLIC KINASE INHIBITORS AND USES THEREOF” (iOmx Therapeutics AG, priority 2020, published 2023).

Molecules are shown by their SMILES. Converted amounts (≈) assume the structure as drawn. Read-outs that look alike come from different tables or passages of the source. Bounds are passed on as bounds.

In one series the test system is HCT116 tumour cells. Kind of series: TNF-sensitised cell viability assay (CellTiter-Glo), HCT116. Type of series: cell-based, human. Conditions: for IC50: 10 ng/ml rHuTNF, 72 h. The procedure:
(§1) Cell viability of HCT116 tumour cells was measured using the CellTiter-Glo (CTG) luminescent cell viability assay (Promega, Madison, USA) according to the manufacturer's protocol. In short, 1×10^3 HCT116 cells were seeded in a 384-well plate for 24 h and subsequently treated with different concentrations of compounds and 10 ng/ml rHuTNF for 72 h at 37° C. and 5% CO2. After incubation, CTG reagent was added to the wells and cells were lysed for 10 min. Read-out was performed using the Tecan reader with 0.1 sec counting time. TNF-induced cell killing in human PANC1 and murine MC38 tumour cells was measured analogously to the assay in human HCT116 cells, except that for the PANC1 assay 100 ng/ml rHuTNF and for the MC38 assay 100 ng/ml rMuTNF were used.

A further series relates to PANC1 tumour cells. The series can be described thus: TNF-sensitised cell viability assay (CellTiter-Glo), PANC1. The class given is cell-based, human. Conditions: for IC50: 100 ng/ml rHuTNF, 72 h. The procedure: as §1
For another series, the system named is MC38 tumour cells. Kind of series: TNF-sensitised cell viability assay (CellTiter-Glo), MC38. Particulars: 100 ng/ml rMuTNF, 72 h. Type of series: cell-based, murine. As for the experimental part:
as §1

Another series can be described thus: Kinetic solubility assay. Type of series: physicochemical. Conditions: aqueous buffer, kinetic from dmso stock; PBS buffer pH 7.4, 1.0% DMSO, 24 h at RT. As for the experimental part:
The Kinetic solubility assay was conducted as follows. 4 uL compound of the 50 mM DMSO stock was added to deep well plate containing 396 uL PBS buffer (pH 7.4). The DMSO content in the sample was 1.0%, and the compound concentration 500 μM. The sample plate was vortexed at 800 rpm for 24 h at RT on a thermomixer. At the end of the incubation period, the sample plate was centrifuged at 4000 rpm for 10 mins. 3 uL of supernatant was transferred to well containing 297 uL of ISTD in Acetonitrile water:50:50, v/v and analysed in LC-MS/MS against a calibration curve (CC).

Series [1] can be described thus: Human liver microsomal stability. Particulars: pH 7.4; human liver microsomes, NADPH, 37°C. The class given is in vitro ADME. The procedure: (§2) Briefly, human and liver microsomal stability was determined by pre-incubation of 2.5 uL compound and 75 uL of the respective liver microsomes in potassium phosphate buffer (pH 7.4) at 37° C. After adding of NADPH as cofactor and further incubation at 37° C. for 60 min, acetonitrile containing internal standard was added, and the sample was vortexed for 5 min at 1200 rpm and then centrifuged 10 min at 4000 rpm.
(§3) LC-MS/MS was performed for all assays using a C18 column (50*4.6 mm, 5 um) for the CaCo2 assay, or a C18 column (50*4.6 mm, 4 um) for the other assays. The mobile phases used were 10 mM Ammonium Acetate with 0.1% Formic acid (aqueous) and 100% Acetonitrile (organic).

The nature of series [2]: Mouse liver microsomal stability. Conditions: pH 7.4; mouse liver microsomes, NADPH, 37°C. The class given is in vitro ADME. The procedure: as §2, §3
Series [3] is described as follows: Human hepatocyte stability. Type of series: in vitro ADME. Conditions: human hepatocytes, 37°C. As for the experimental part:
(§4) Determination of human and mice hepatocyte stability was conducted as follows. 200 uL of the respective hepatocyte cell suspension (2×10e6/ml) was preincubated at 37° C. for 10 min. Then, 200 uL of a 2 uM working stock of the test compound was added to the hepatocyte cell suspension, and the mixture was further incubated at 37° C. and 500 rpm. The reaction was stopped at 30, 60 and 120 min by precipitating 50 uL of the incubation mixture with 200 uL of acetonitrile. Samples were vortexed for 5 min at 1200 rpm and centrifuged at 4000 rpm for 10 min. Intrinsic clearance and half-life were analysed using LC-MS/MS.
as §3

Series [4] in a line: Mouse hepatocyte stability. The class given is in vitro ADME. Conditions: mouse hepatocytes, 37°C. As for the experimental part: as §4, §3
Series [5] is described as follows: Human plasma-protein binding (RED method). Type of series: in vitro ADME. The procedure: (§5) Human and mice protein plasma binding was determined using the Plasma Protein Binding by RED Method. Briefly, 200 uL of the respective plasma containing the test compound (10 uM) was spiked into the donor well (RED Chamber) of the insert. 350 uL of PBS was spiked into receiver well (white chamber). The plate was incubated at 37° C. in a thermomixer at 400 rpm for 5 hours. The samples were matrix equilibrated with opposite matrix (25 uL blank buffet/Plasma). Matrix matched samples were precipitated with 200 uL of Acetonitrile containing Internal standard. Samples were vortexed at 1000 rpm for 5 min and centrifuged at 4000 rpm for 10 min. The supernatant was diluted 2 folds with water and % bound and unbound protein and % recovery at 5 h was determined by LC-MS/MS.
as §3

Series [6] can be described thus: Murine plasma protein binding (RED method). The class given is in vitro ADME. Particulars: mouse. The procedure:
as §5, §3

A short description of series [7]: CaCo2 permeability and efflux assay. Type of series: in vitro ADME. Particulars: human, Caco-2; CaCo2, mean efflux ratio. As for the experimental part:
(§6) To determine apparent permeability of the compounds an assay using a Caco-2 cells monolayer (cultured for 21d) in a 24-well format (poly carbonate high pore density plate with 0.4 μm pore size and a 0.7 cm2 active membrane area; Millipore) was performed as followed. 800 uL of DMEM was added to the basal compartment of the 24 well-plate and 60000 CaCo2 cells/well were seeded in the apical wells and incubated in a CO2 incubator at 37° C. for proliferation of cells. Apical to Basal permeability was determined by adding 400 uL of test compound to the apical well and 800 uL of HBSS buffer with 2% BSA to the basal well. 25 uL of basal sample was collected after 120 min and processed as stated below. Basal to Apical permeability was determined by adding 800 uL of test compound to basal well and 400 uL of HBSS buffer with 2% BSA to apical well. 25 uL of apical sample was collected after 120 min and processed as stated below. The samples were processed by diluting the donor samples 1:1 with HBSS containing 2% BSA and the receiver samples 1:1 with HBSS buffer. Samples were then precipitated with 200 uL of acetonitrile containing internal standard, vortexed for 5 min at 1000 rpm, and centrifuged at 4000 rpm for 20 min. 150 uL of supernatant was diluted with 150 uL of water and submitted for LC-MS/MS analysis, and Bi-directional (A-B and B-A) apparent permeability (Papp) was calculated.
as §3

The next series has as its system Caco-2 cells monolayer. The series can be described thus: CaCo2 permeability and efflux assay. The class given is in vitro ADME. Conditions: CaCo2, apical to basal, 120 min. As for the experimental part: as §6, §3
The nature of series [8]: pharmacokinetic study, plasma level after single po or iv administration. Conditions: mice. Type of series: in vivo, male CD1 mice. The procedure: Screening PK properties of compounds of Formula (I) are additionally determined, including plasma and free plasma concentration, as well as Cmax. For example, the free concentration of compound after a dose of eg 30 mg/kg po (per os) administered mice can be determined for certain time points after administrations.
To further investigate PK properties of kinase inhibitors of Formula (I), the compounds are tested for in vivo drug exposure and potency in a full pharmacokinetic study with oral administration (per os, po).
The experimental procedure and the determination of the pharmacokinetic parameters are investigated after single administration of each compound per gavage in male CD1 mice (Intonation Research Laboratories (Hyderabad, India)). The compounds are diluted in 5% DMSO+5% Solutol+90% water. Plasma level (eg sampling 0.25 h; 0.5 h; 1 h; 1.5 h; 2 h; 4 h; 6 h; 12 h; 24 h after drug administration) of the compounds are analysed by LC-MS/MS and pharmacokinetic parameters are determined using non-compartmental analysis and nominal dose levels of eg 30 mg/kg po and 1 mg/kg iv. Three animals are analysed per time point and each mouse is used for three plasma samplings in total.

The subject of another series is AML. Particulars: administered intraperitoneally; Tarumoto et al 2020; cited from earlier work.
The test system of series [9] is MPAL-associated AML cell lines (including MOLM-13 and MV4-11). Particulars: Tarumoto et al 2018; cited from earlier work.
A further series relates to human skin explants. Conditions: topical treatment; Mujahid et al 2017; cited from earlier work.
The next series concerns the target SIK2 (Homo sapiens, UniProt Q9H0K1). Kind of series: radiometric protein kinase assay (33PanQinase Activity Assay), SIK2. The class given is biochemical. The procedure: (§7) The IC50s of the compounds against the SIK family of protein-serine/threonine kinases (SIK2 and SIK3) were determined as followed. Briefly, a radiometric protein kinase assay (33PanQinase® Activity Assay) was used for measuring the kinase activity of the two protein kinases. The kinase assays were performed in 96-well FlashPlates™ from PerkinElmer (Boston, Mass., USA) in a 50 uL reaction volume. The reaction cocktail was pipetted in four steps in the following order: • […] (standard buffer/[gamma-33P]-ATP) • 10 uL of ATP solution (in water) • 5 uL of test compound (in 10% DMSO) • 20 uL enzyme/substrate mix
(§8) The following amounts of enzyme and applicable substrate were used per well:
(§9) The reaction cocktails were incubated at 30 °C for 60 minutes. The reaction was stopped with 50 uL of 2% (v/v) H3PO4, plates were aspirated and washed two times with 200 μL 0.9% (w/v) NaCl. Incorporation of 33Pi was determined with a microplate scintillation counter (Microbeta, Wallac). All assays were performed with a BeckmanCoulter/SAGIAN™ Core System.

A further series concerns the target SIK3 (Homo sapiens, UniProt Q9Y2K2). The series can be described thus: radiometric protein kinase assay (33PanQinase Activity Assay), SIK3. Type of series: biochemical. As for the experimental part:
as §7, §8, §9

In another series the test system is HCT116 and PANC1. The series can be described thus: toxicity against the cell lines in the absence of TNF. Conditions: 0 ng/mL TNF, up to concentrations of 10 uM. The class given is cell-based. The procedure:
Typically, those compounds of Formula (I) tested were less toxic against the cell lines than the prior art compound PY1 when tested (eg, in the absence of TNF), especially against the human cell lines such as HCT116 (data not shown).
as §1

The mark [10] stands for this setting: ATP 1.0 μM, substrate RBER-CHKtide.

Sequence of SIK3 (Q9Y2K2 whole entry): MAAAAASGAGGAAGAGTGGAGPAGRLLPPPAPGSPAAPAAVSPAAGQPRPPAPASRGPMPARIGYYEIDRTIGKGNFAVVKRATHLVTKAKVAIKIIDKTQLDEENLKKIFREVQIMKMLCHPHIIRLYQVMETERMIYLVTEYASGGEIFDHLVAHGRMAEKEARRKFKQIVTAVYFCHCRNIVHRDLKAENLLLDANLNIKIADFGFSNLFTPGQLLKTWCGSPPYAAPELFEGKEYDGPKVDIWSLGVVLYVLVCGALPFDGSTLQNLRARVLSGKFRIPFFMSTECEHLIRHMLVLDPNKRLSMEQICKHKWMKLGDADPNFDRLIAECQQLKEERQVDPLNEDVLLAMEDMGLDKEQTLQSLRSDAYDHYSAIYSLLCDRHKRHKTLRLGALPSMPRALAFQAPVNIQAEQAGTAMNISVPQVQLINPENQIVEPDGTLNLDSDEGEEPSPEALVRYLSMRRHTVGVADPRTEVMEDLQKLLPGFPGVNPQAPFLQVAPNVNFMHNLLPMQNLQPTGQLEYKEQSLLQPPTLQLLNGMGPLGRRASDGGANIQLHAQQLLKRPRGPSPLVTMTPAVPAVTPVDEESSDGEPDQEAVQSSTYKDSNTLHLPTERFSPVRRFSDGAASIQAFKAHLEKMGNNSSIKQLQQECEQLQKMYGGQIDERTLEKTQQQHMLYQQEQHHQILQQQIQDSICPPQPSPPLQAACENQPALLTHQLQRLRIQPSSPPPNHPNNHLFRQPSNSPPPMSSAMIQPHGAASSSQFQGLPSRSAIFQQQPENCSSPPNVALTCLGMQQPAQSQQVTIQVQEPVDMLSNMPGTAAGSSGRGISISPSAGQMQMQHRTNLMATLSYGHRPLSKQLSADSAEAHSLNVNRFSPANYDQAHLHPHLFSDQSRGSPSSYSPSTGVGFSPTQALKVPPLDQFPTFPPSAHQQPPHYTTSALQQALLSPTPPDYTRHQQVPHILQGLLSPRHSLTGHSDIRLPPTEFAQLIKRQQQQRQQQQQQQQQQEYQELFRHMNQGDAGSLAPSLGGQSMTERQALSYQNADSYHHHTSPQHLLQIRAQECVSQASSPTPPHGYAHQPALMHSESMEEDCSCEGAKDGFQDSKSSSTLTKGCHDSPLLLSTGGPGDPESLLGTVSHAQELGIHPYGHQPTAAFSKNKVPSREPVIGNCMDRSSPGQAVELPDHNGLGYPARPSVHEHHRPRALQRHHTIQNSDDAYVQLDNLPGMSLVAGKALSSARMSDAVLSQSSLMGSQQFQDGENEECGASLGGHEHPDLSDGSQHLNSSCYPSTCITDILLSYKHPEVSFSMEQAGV
Sequence of SIK2 (Q9H0K1 whole entry): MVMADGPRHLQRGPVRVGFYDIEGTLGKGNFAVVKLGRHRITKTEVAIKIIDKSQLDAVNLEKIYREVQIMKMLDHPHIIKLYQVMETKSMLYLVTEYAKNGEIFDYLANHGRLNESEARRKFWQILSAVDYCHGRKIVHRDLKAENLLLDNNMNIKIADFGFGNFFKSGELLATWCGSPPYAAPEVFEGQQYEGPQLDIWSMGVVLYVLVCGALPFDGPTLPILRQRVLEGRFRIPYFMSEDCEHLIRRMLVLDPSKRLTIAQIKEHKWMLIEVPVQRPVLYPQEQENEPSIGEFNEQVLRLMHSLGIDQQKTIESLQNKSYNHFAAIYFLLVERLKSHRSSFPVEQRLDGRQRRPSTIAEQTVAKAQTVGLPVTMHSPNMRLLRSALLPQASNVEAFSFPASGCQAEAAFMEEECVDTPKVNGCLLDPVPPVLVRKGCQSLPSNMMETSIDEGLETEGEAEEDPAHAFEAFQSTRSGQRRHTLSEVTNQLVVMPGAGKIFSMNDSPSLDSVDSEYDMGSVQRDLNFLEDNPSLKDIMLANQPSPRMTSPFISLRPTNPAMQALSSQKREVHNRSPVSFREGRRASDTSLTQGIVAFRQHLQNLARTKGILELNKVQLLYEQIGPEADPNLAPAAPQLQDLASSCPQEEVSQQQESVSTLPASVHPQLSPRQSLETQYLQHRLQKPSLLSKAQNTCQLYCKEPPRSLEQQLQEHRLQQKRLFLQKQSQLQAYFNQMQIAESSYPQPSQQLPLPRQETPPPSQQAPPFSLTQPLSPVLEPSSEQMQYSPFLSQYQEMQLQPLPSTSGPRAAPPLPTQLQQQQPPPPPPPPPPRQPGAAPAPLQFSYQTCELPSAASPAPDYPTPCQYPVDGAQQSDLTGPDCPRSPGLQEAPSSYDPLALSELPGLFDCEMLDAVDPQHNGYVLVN

In the case of `COc1ccc(N2C(=O)N(c3c(C)cccc3Cl)Cc3cnc(Nc4ccc(C5CCN(C)CC5)cc4OC)nc32)nc1` [PY1, 3-(2-chloro-6-methylphenyl)-7-((2-methoxy-4-(1-methylpiperidin-4-yl)phenyl)amino)-1-(5-methoxypyridin-2-yl)-3,4-dihydropyrimido[4,5-d]pyrimidin-2(1H)-one, reference compound], the IC50 is 0.5 to 1 µM in the series on HCT116 tumour cells (Homo sapiens, HCT-116, read-out: HCT116 IC50 (at 10 ng/ml rHuTNF)); 0.5 to 1 µM in the series with PANC1 tumour cells (Homo sapiens, PANC-1, read-out: PANC IC50 (at 100 ng/ml rHuTNF)); 0.5 to 1 µM with MC38 tumour cells (Mus musculus, MC-38, read-out: MC38 IC50 (at 100 ng/ml rMuTNF)). This molecule had a kinetic solubility at 24 h in the series “Kinetic solubility assay” of 3.6 µM (≈ 2.16 µg/mL). Further, the half-life in [1] came out at 2.57 h; in series [2], 1.45 h. For the same molecule, the half-life at 1 uM in [3] was 10.7 h; in series [4], 1.25 h. Besides, the values for the recovery at 5 h, 10 uM in series [5] and in [6] were 53% and 42%, respectively. In addition, in series [7], the efflux ratio at 120 min was found to be 3.2. In the series on Caco-2 cells monolayer, the “A > B(10 EE-06 cm/s)” value was 9.5 10 EE-06 cm/s. The “compound detectable in plasma after 24 h” value in [8] (1 mg/kg iv) and in series [8] (30 mg/kg po) was “No PY1 (the prior art compound YKL-05-099) was detectable after 24 h” each time. For the same molecule, the AML progression in-vivo entry with AML is recorded as “suppressed AML progression in-vivo”.

Turning to `COc1ccc(N(C(=O)Nc2c(C)cccc2C)c2cc(Nc3ccc(N4CCN(C)CC4)cc3)ncn2)c(OC)c1` [HG-9-91-01], the “viability of MPAL-associated AML cell lines” value in series [9] is reported as “strongly decreases viability”. In addition, the “eumelanisation in human skin” value in the series on human skin explants is reported as “able to induce eumelanisation”.

`COc1ccc(N2C(=O)N(c3c(CF)csc3Cl)Cc3cnc(Nc4ccc(N5CCN(C)CC5)cc4)nc32)nc1` [AA6, 3-(2-chloro-4-(fluoromethyl)thiophen-3-yl)-1-(5-methoxypyridin-2-yl)-7-((4-(4-methylpiperazin-1-yl)phenyl)amino)-3,4-dihydropyrimido[4,5-d]pyrimidin-2(l H)-one]: the IC50 against SIK2 (setting [10]) is less than 50 nM; at SIK3 (setting [10]) it was less than 50 nM; in the series with HCT116 tumour cells (read-out: HCT116 IC50 (at 10 ng/ml rHuTNF)), less than 0.1 µM; with PANC1 tumour cells (read-out: PANC IC50 (at 100 ng/ml rHuTNF)), 0.1 to 0.5 µM; with MC38 tumour cells (read-out: MC38 IC50 (at 100 ng/ml rMuTNF)) it was 0.5 to 1 µM. On SIK2 (in words), the “inhibiting SIK2 compared to PY1” value was “superior in inhibiting SIK2 and SIK3 compared to PY1”. Also, the “inhibiting SIK3 compared to PY1” value against SIK3 (in words) was “superior in inhibiting SIK2 and SIK3 compared to PY1”. Moreover, the “sensitisation of HCT116 tumour cells to the cytotoxic effect of TNF compared to PY1” value in the series on HCT116 tumour cells (in words) was “much stronger effect compared to the prior art compound PY1”. Besides, the “sensitisation of PANC tumour cells to the cytotoxic effects of TNF compared to PY1” value with PANC1 tumour cells (in words) was “stronger effect than PY1”. In addition, the “toxicity against the cell lines in the absence of TNF” value in the series with HCT116 and PANC1 is “essentially non-toxic”.
